Here are results for 24 molecules from patent EP4782453A1 (Beyang Therapeutics Co., Ltd., priority 2023, dated 2025).

One experiment deals with T1, Menin-MLL (Homo sapiens, UniProt O00255).
T1 construct: His-Menin (M1-L615 end); purchased BIORTUS BP9210
T1 sequence (O00255 1-615 isoform O00255-1): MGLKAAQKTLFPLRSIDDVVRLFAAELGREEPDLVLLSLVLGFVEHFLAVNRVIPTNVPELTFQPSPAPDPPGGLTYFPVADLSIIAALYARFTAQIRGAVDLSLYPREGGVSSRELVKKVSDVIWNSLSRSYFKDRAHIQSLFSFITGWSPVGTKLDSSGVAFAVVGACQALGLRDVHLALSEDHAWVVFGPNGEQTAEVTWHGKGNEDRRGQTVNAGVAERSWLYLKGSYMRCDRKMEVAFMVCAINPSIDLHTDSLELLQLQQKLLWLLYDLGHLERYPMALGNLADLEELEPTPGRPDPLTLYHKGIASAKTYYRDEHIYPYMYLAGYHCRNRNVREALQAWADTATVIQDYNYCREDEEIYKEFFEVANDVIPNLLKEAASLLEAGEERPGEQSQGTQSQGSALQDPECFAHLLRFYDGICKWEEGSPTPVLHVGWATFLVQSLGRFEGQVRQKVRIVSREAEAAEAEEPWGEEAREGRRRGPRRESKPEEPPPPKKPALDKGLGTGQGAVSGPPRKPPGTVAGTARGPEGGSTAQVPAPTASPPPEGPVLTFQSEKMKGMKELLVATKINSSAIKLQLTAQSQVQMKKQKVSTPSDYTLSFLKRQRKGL
The experiment is described as follows: Inhibitory activity against Menin-MLL binding (fluorescence polarization). To be noted: Menin-MLL IC50, fluorescence polarization; 150 nM His-Menin, 15 nM FITC-MLL; 25°C for 60 min. The gist of the method: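 His-Menin (M1-L615, 150 nM) preincubated with compound 15 min at 25 °C in HEPES pH 7.5, 50 mM NaCl, 1 mM DTT, 0.01% BSA, then 15 nM FITC-MLL4-43 peptide added for 60 min at 25 °C. Fluorescence polarization read; IC50 from 4-parameter logistic fit, duplicates.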
(Fluorescence polarisation rises when a labelled molecule tumbles more slowly, as on binding a larger partner.)
In general, IC50 refers to the concentration that inhibits the measured activity by half. `CCN(C(=O)c1cc(F)ccc1-c1cc(C2CN(C(=O)C3NC4CCC3CC4)C2)cn2c(C)nc(F)c12)C(C)C` [Example 107, N-ethyl-5-fluoro-2-(1-fluoro-3-methyl-6-{1-[(1R,3S,4S)-2-azabicyclo[2.2.2]octan-3-carbonyl]azacyclobutan-3-yl}imidazo[1,5-a]pyridin-8-yl)-N-(isopropyl)benzamide] had an IC50 of 4.5 nM.
Same read-out and setting: the same measure for `CCN(C(=O)c1cc(F)ccc1-c1cc(N2CC3(CN(C[C@H]4CC[C@H](NS(=O)(=O)CC)CC4)C3)C2)cn2c(C)ncc12)C(C)C` [Example 89, N-ethyl-5-fluoro-2-[3-methyl-6-(6-{[(1r,4r)-4-ethanesulfonamidocyclohexyl]methyl}-2,6-diazaspirocyclo[3.3]heptan-2-yl)imidazo[1,5-a]pyridin-8-yl]-N-(isopropyl)benzamide]: 173 nM; for `CCN(C(=O)c1cc(F)ccc1-c1cc(C2CN(C(=O)C3NC4CCC3CC4)C2)cn2c(C)nc(Cl)c12)C(C)C` [Example 108, 2-(1-chloro-3-methyl-6-{1-[(1R,3S,4S)-2-azabicyclo[2.2.2]octan-3-carbonyl]azacyclobutan-3-yl}imidazo[1,5-a]pyridin-8-yl)-N-ethyl-5-fluoro-N-(isopropyl)benzamide]: 7.2 nM; for `CCN(C(=O)c1cc(F)ccc1-n1c(=O)n(CC2CN(C(CCCN3CCN(CCO)CC3)C(C)C)C2)c2c(C)cncc21)C(C)C` (stereo not drawn) [Example 415, N-ethyl-5-fluoro-2-{1-[(1-{6-[4-(2-hydroxyethyl)piperazin-1-yl]-2-methylhexan-3-yl}azacyclobutan-3-yl)methyl]-7-methyl-2-oxo-1H,2H,3H-imidazo[4,5-c]pyridin-3-yl} N-(isopropyl)benzamide]: 160 nM.

The same experiment, now with this note: fluorescence polarization; 150 nM His-Menin, 15 nM FITC-MLL; 25°C for 60 min; read-out: Menin-MLL IC50.
For the molecule `CCN(C(=O)c1cc(F)ccc1-c1cc(C2CN(C(CCC3(O)COC3)C(C)C)C2)cn2c(C)ncc12)C(C)C` (stereo not drawn) [Example 447, N-ethyl-5-fluoro-2-(6-{1-[1-(3-hydroxyloxacyclobutan-3-yl)-4-methylpentan-3-yl]azacyclobut-3-yl}-3-methylimidazo[1,5-a]pyridin-8-yl)-N-(isopropyl)benzamide], the IC50 was 25 nM.
`CCN(C(=O)c1cc(F)ccc1-c1cc(C2CN([C@H](CN3CCN(C(C)=O)CC3)C(C)C)C2)cc2c1cnn2C)C(C)C` [Example 417]: the IC50 came out at 62 nM.
On the same count and under the same terms, then `CCN(C(=O)c1cc(F)ccc1-c1cc(C2CCN(CC3CCN(c4nnc(C)o4)CC3)C2)cn2cncc12)C(C)C` (stereo not drawn) [Example 46], with 62.5 nM; and `CCC(=O)N1CCC(C(C)N2CC(c3cc(-c4ccc(F)cc4C(=O)N4CCOC[C@H]4C)c4cnc(C)n4c3)C2)CC1` (stereo partly drawn) [Example 319, 1-(4-{1-[3-(8-{4-fluoro-2-[(3R)-3-methylmorpholin-4-carbonyl]phenyl}-3-methylimidazo[1,5-a]pyridin-6-yl)azacyclobutan-1-yl]ethyl}piperidin-1-yl)propan-1-one], with 19 nM.
Same read-out and setting: then `CC(=O)N1CC2CCC(C1)N2CCC[C@H](C(C)C)N1CC(c2cc(-c3ccc(F)cc3C(=O)N3CCOC[C@H]3C)c3cnn(C)c3c2)C1` [Example 383], with 17 nM.
Still for that read-out and setting: the same measure for `COCCN(C)CCCC(C(C)C)N1CC(Cc2cc(-c3ccc(F)cc3C(=O)N3CCOC[C@H]3C)c3cnn(C)c3c2)C1` (stereo partly drawn) [Example 179]: 89 nM; for `CCN(C(=O)c1cc(F)ccc1-c1cc(C2CN(C(CN3CCOCC3)C(C)C)C2)cn2c(C)ncc12)C(C)C` (stereo not drawn) [Example 439, N-ethyl-5-fluoro-2-(3-methyl-6-{1-[3-methyl-1-(morpholin-4-yl)butan-2-yl]azacyclobutan-3-yl}imidazo[1,5-a]pyridin-8-yl)-N-(isopropyl)benzamide]: 21 nM.
Take `COCC(C1CCOCC1)N1CC(c2cc(-c3ccc(F)cc3C(=O)N3CCOC[C@H]3C)c3c(F)nc(C)n3c2)C1` (stereo partly drawn) [Example 255, (3R)-4-[5-fluoro-2-(1-fluoro-6-{1-[2-methoxy-1-(oxacyclohexan-4-yl)ethyl]azacyclobutan-3-yl}-3-methylimidazo[1,5-a]pyridin-8-yl)benzoyl]-3-methylmorpholine]: the IC50 came to 86 nM.
As for `Cc1nc(F)c2c(-c3ccc(F)cc3C(=O)N3CCOC[C@H]3C)cc(C3CN(C(CC[C@H]4COCCN4C)C(C)C)C3)cn12` (stereo partly drawn) [Example 374, (3R)-4-{5-fluoro-2-[1-fluoro-3-methyl-6-(1-{4-methyl-1-[(3S)-4-methylmorpholin-3-yl]pentan-3-yl}azacyclobutan-3-yl)imidazo[1,5-a]pyridin-8-yl]benzoyl}-3-methylmorpholine], the half-inhibitory concentration (IC50) is 26 nM.
Still for that read-out and setting: the same measure for `CCN(C(=O)c1cc(F)ccc1-c1cc(C2CN(C(CCCN3C[C@H]4C[C@@H]3CO4)C(C)C)C2)cc2c(C)ncn12)C(C)C` (stereo partly drawn) [Example 465, N-ethyl-5-fluoro-2-[1-methyl-7-(1-{2-methyl-6-[(1R,4R)-2-oxa-5-azabicyclo[2.2.1]heptan-5-yl]hexan-3-yl}azacyclobutan-3-yl)imidazo[1,5-a]pyridin-5-yl]-N-(isopropyl)benzamide]: 3.1 nM; for `CCOC(=O)N1CCC(CN2CC(c3cc(-c4ccc(F)cc4C(=O)N4CCOC[C@H]4C)c4c(F)nc(C)n4c3)C2)CC1` [Example 270]: 24 nM.
Consider `CO[C@@H]1CN(CCC[C@H](C(C)C)N2CC(c3cc(-c4ccc(F)cc4C(=O)N4CCOC[C@H]4C)c4c(F)nc(C)n4c3)C2)C[C@H]1O` [Example 291-1, (3R,4R)-1-[(4R)-4-[3-(1-fluoro-8-{4-fluoro-2-[(3R)-3-methylmorpholin-4-carbonyl]phenyl}-3-methylimidazo[1,5-a]pyridin-6-yl)azacyclobutan-1-yl]-5-methylhexyl]-4-methoxypyrrolidin-3-ol], for which the IC50 stood at 6 nM.
On the same count and under the same terms, then `CC(=O)N1C[C@H]2C[C@@H]1CN2CCC[C@H](C(C)C)N1CC(c2cc(-c3ccc(F)cc3C(=O)N3CCOC[C@H]3C)c3c(F)nc(C)n3c2)C1` [Example 332, 1-[(1R,4R)-5-[(4R)-4-[3-(1-fluoro-8-{4-fluoro-2-[(3R)-3-methylmorpholin-4-carbonyl]phenyl}-3-methylimidazo[1,5-a]pyridin-6-yl)azacyclobutan-1-yl]-5-methylhexyl]-2,5-diazabicyclo[2.2.1]heptan-2-yl]ethan-1-one], with 9.3 nM.
In the case of `Cc1nc(F)c2c(-c3ccc(F)cc3C(=O)N3CCOC[C@H]3C)cc(C3CN(CC4CCN(C(=O)N(C)C)CC4)C3)cn12` [Example 246], the IC50 is 73 nM.
As to `CC(=O)N1CC2CCC(C1)N2CCC[C@H](C(C)C)N1CC(c2cc(-c3ccc(F)cc3C(=O)N3CCOC[C@H]3C)c3cnc(C)n3c2)C1` [Example 348, 1-{8-[(4R)-4-[3-(8-{4-fluoro-2-[(3R)-3-methylmorpholin-4-carbonyl]phenyl}-3-methylimidazo[1,5-a]pyridin-6-yl)azacyclobutan-1-yl]-5-methylhexyl]-3,8-diazabicyclo[3.2.1]oct-3-yl}ethan-1-one], the 50% inhibitory concentration (IC50) is 7.3 nM.
The same measure, in the same setting: the same measure for `CCN(C(=O)c1cc(F)ccc1-c1cc(C2CN(C(CCN3CCN(CCO)CC3)C(C)C)C2)cn2c(C)ncc12)C(C)C` (stereo not drawn) [Example 456, N-ethyl-5-fluoro-2-[6-(1-{1-[4-(2-hydroxyethyl)piperazin-1-yl]-4-methylpentan-3-yl}azacyclobutan-3-yl)-3-methylimidazo[1,5-a]pyridin-8-yl]-N-(isopropyl)benzamide]: 14 nM; for `Cc1nc(F)c2c(-c3ccc(F)cc3C(=O)N3CCOC[C@H]3C)cc(C3CN([C@@H](CN4CCNCC4)C(C)C)C3)cn12` [Example 367-1, (3R)-4-[5-fluoro-2-(1-fluoro-3-methyl-6-{1-[(2R)-3-methyl-1-(piperazin-1-yl)butan-2-yl]azacyclobutan-3-yl}imidazo[1,5-a]pyridin-8-yl)benzoyl]-3-methylmorpholine]: 3.9 nM.
Consider `Cc1nc(F)c2c(-c3ccc(F)cc3C(=O)N3CCOC[C@H]3C)cc(C3CN(C[C@H]4CC[C@H](c5ncno5)CC4)C3)cn12` [Example 207-1, (3R)-4-{5-fluoro-2-[1-fluoro-3-methyl-6-(1-{[(1r,4r)-4-(1,2,4-oxadiazol-5-yl)cyclohexyl]methyl}azacyclobutan-3-yl)imidazo[1,5-a]pyridin-8yl]benzoyl}-3-methylmorpholine], for which the IC50 turned out to be 111 nM.
In the case of `CCN(C(=O)c1cc(F)ccc1-c1cc(C2CN([C@@H](CN3CCN(CCO)CC3)C(C)C)C2)cc2c1cnn2C)C(C)C` [Example 416-1, N-ethyl-5-fluoro-2-(6-{1-[(2R)-1-[4-(2-hydroxyethyl)piperazin-1-yl]-3-methylbutan-2-yl]azacyclobutan-3-yl}-1-methyl-1H-indazol-4-yl)-N-(isopropyl)benzamide], the IC50 amounted to 150 nM.
The same measure, in the same setting: the same measure for `CCN(C(=O)c1cc(F)ccc1-c1cc(N2CCN(C(=O)C3NCCC3c3ccccc3)CC2)cn2c(C)nc(Cl)c12)C(C)C` (stereo not drawn) [Example 127]: 73.5 nM.
